The record followed here is patent EP1226809B1, “SKIN TEXTURE-IMPROVING AGENTS” (KYOWA HAKKO KOGYO CO., LTD., priority 1999, dated 2001).

In one test the test system is collagenase I (MMP-1). As to conditions: 37°C, 4 hours. As for the experimental part:
Measurement of collagenase-inhibiting activity was carried out in the following manner according to the method described in Development and Application of Simple Microassay for Collagenase Activity; Nagai, et al., Inflammation, Vol. 4, p. 123-130, Nihon Igakukan (1984).
To 25 µl of a neutralization buffer (0.1 mol/l Tris hydrochloride, pH 7.5, 0.4 mol/l NaCl, 10 mmol/l CaCl2 and 0.04% NaN3) was added 25 µl of fluorescein isothiocyanate (FITC)-labeled collagen I (Cosmo Bio Co.) To the resulting mixture were further added 50 µl of collagenase I (MMP-1) (Cosmo Bio Co.) and a test sample dissolved in 10 µl of the neutralization buffer, followed by reaction at 37°C for 4 hours. To the reaction mixture was added 5 µl of a reaction terminating solution [80 mmol/l o-phenanthroline/50% (v/v) aqueous ethanol] to stop the reaction. To the resulting mixture was added 100 µl of a twice diluted neutralization buffer and the resulting mixture was allowed to stand at 35°C for 60 minutes. After cooling on ice for 5 minutes, 200 µl of 70% (v/v) aqueous ethanol was added to the mixture, followed by vigorous stirring for 5 minutes. The resulting mixture was centrifuged at 15,000 rpm at 4°C for 10 minutes to obtain the supernatant. By using a spectrophotofluorometer, the supernatant was irradiated with excitation light at 495 nm and emission light at 520 nm (A) was measured to determine the amount of decomposed collagen. The collagenase-inhibiting activity was calculated according to equation 4 by using data (B) obtained when purified water was employed in place of collagenase I and data (C) obtained when a neutralization buffer was employed in place of the test sample. Collagenase-inhibiting activity(%) = [(A)-(B)]/[(C)-(B)] × 100 [formula]

In test [1] the test system is Human neonate-derived fibroblasts. Nature of the test: Measurement of collagen synthesis-promoting activity on human fibroblasts (3H-glycine incorporation). It is filed as cell-based. As to conditions: 300 µmol/l. As for the experimental part: 201-271, Kodansha Scientific (1986).
Human neonate-derived fibroblasts (Sanko Junyaku Co., Ltd.) were suspended in DMEM containing 10% fetal bovine serum [Virology, 8, 396 (1959)] and cultured at 37°C in 5% CO2 to the stationary phase. To the resulting culture were added ^3H-labeled glycine and a test substance, followed by further culturing for 72 hours. After 500 µmol/l phenylmethanesulfonyl fluoride (PMSF) was added to the obtained culture, the cells and the medium were collected, followed by disruption with a sonicator to extract proteins. To the extract were added 100 µmol/l bovine serum albumin (BSA) and 10% trichloroacetic acid (TCA), and the resulting mixture was centrifuged at 3000 rpm for 5 minutes to collect the precipitate. […]
After the reaction mixture was separated by ultrafiltration (molecular weight: 10,000), the radioactivity of the protein fraction in the filtrate (CDP) was measured as the amount of newly synthesized collagen. Then, the radioactivity of the protein fraction which was not filtered (NCDP) was measured, and the collagen synthesis ratio was calculated according to equation 2. The relative collagen synthesis-promoting activity (the change in collagen synthesis) was calculated according to equation 3 as the relative value of the collagen synthesis ratio in the presence of a test substance based on the control. […]

Like-named read-outs stand apart in the source and are kept apart here.

Consider `Oc1cc(O)c2c(c1)O[C@H](c1ccc(O)c(O)c1)[C@H](O)[C@H]2c1c(O)cc(O)c2c1O[C@H](c1ccc(O)c(O)c1)[C@H](O)[C@H]2c1c(O)cc(O)c2c1O[C@H](c1ccc(O)c(O)c1)[C@H](O)C2` [PC1, epicatechin-(4β→ 8)-epicatechin-(4β→8)-epicatechin], for which the “Collagenase-inhibiting activity (%)” value with collagenase I (MMP-1) (1 µmol/l) worked out at 17%; in the test on collagenase I (MMP-1) (10 µmol/l) it was 37%; with collagenase I (MMP-1) (100 µmol/l), 100%.
`Oc1cc(O)c2c(c1)O[C@H](c1ccc(O)c(O)c1)[C@H](O)[C@H]2c1c(O)cc(O)c2c1O[C@H](c1ccc(O)c(O)c1)[C@H](O)C2` [PB2, epicatechin-(4β→8)-epicatechin]: the “Relative collagen synthesis-promoting activity (%)” value in test [1] (after 72 hours of culturing, control = 100) is reported as 120.8%. For the same compound, the “amount of collagen synthesized” value in test [1] (result in words, compared with control (=100%)) is given as “increased”. For the same compound, the figures for the “Collagenase-inhibiting activity (%)” value with collagenase I (MMP-1) (100 µmol/l) and in the test with collagenase I (MMP-1) (1 mmol/l) were 69.4% and 100%, respectively.
